According to article PMC10897151, “Nature-inspired peptide of MtDef4 C-terminus tail enables protein delivery in mammalian cells” (Scientific Reports, 2024):
Peptide text beside a SMILES is read from it.

Tests used:
HeLa cells [1] = assay: Flow cytometry analysis of cellular uptake; format: cell-based; settings: free FITC 25 µM, 2 h, trypsin treated
Method: To evaluate the capability of GMA4C to penetrate mammalian cells, we synthesized the peptide with a fluorescein isothiocyanate (FITC) fluorescent probe at its N-terminus (FITC-GMA4C). Subsequently, we incubated HeLa cells with varying concentrations of FITC-GMA4C for two hours. After thorough washing, we visualized the cells using confocal microscopy imaging. Remarkably, we observed the accumulation and intracellular localization of FITC-GMA4C within the cells, even at low micromolar concentrations (Figs. 3A,B, and S7A). The entry of FITC-GMA4C is depicted by green dots within the cells, indicating effective peptide transduction. […] To ensure that the detected fluorescence signal originated only from peptides internalized within the cells and not from peptides bound to the cell membrane, we washed the cells and subjected them to trypsin treatment at 37 °C. […]
Figure 3 Characterization of GMA4C penetration into HeLa cells by confocal imaging and flow cytometry analysis. […] (B) Quantification of FITC-GMA4C fluorescence intensity. Bars show the mean green fluorescence intensity relative to non-treated cells and normalized to the number of cells. Values were measured using the Color Threshold tab in Fiji. […] (C) Quantification of FITC-GMA4C peptide uptake by cells. […] (D) Quantitative evaluation of flow cytometry signal intensity. Values were measured using FloJo flow cytometry software. […]

HeLa cells [2] = assay: Confocal microscopy imaging of cellular penetration; format: cell-based
Method: To this end, we explored the internalization kinetics of FITC-GMA4C into the cells. At the outset, we performed a dose–response investigation using a twofold dilution, identifying optimal conditions at 6uM for peptide visualization (Figs. 2 and 3). Subsequently, HeLa cells were cultured with 6 µM FITC-GMA4C and imaged at different time points.
Figure 4 Time response of FITC-GMA4C uptake into HeLa cells. (A) Cells were cultured with 6 µM of FITC-GMA4C at 37 °C, followed by PBS washing and subsequent fixation with 4% PFA and post-fixation staining with DAPI. Images of cells were taken by confocal microscopy visualizing FITC-GMA4C (green) and DAPI (Blue). Scale bar: 100 µm. (B) Quantification of FITC-GMA4C fluorescence intensity. Bars show the mean green fluorescence intensity relative to non-treated cells and normalized to the number of cells. Values were measured using the Color Threshold tab in Fiji. […]
Given the remarkable rate and efficiency of the free peptide cellular penetration, we further investigated its capacity to enhance the delivery of large biomolecules into cells. For that purpose, we evaluated the cellular permeabilization of recombinant GFP, expressed and purified with an N- or C-terminus fusion of GMA4C: GFP, GMA4C-GFP and GFP-GMA4C, respectively (Fig. S1). […] Subsequently, we quantified the cellular uptake of the exogenous proteins using flow cytometry analysis. […]

| Molecule | accumulation in the cell (HeLa cells [1]) | time at which significant uptake is observed (HeLa cells [2]) | time to reach uptake equilibrium (HeLa cells [2]) [min] |
| --- | --- | --- | --- |
| fluorescein isothiocyanate [free-FITC] | only slightly accumulated |  |  |
| C[C@@H](O)[C@H](NC(=O)[C@H](CS)NC(=O)[C@H](Cc1ccccc1)NC(=O)[C@H](CS)NC(=O)[C@H](CCCNC(=N)N)NC(=O)[C@H](CCCNC(=N)N)NC(=O)[C@H](CCCNC(=N)N)NC(=O)[C@H](Cc1ccccc1)NC(=O)CNC(=O)[C@H](CCCNC(=N)N)NC(=O)[C@H](CS)NC(=O)[C@H](CCCNC(=N)N)NC(=O)CN)C(=O)N[C@H](C(=O)N[C@@H](Cc1c[nH]cn1)C(=O)N[C@@H](CS)C(=O)O)[C@@H](C)O [GMA4C] (H-GRCRGFRRRCFCTTHC-OH; N-terminus and C-terminus assumed) |  | under 15 min | ≤ 30 |
